Experimental findings from patent US8088806B2 (Achillion Pharmaceuticals, Inc., priority 2005, dated 2012) are described below.

Each structure is given as a SMILES string.

This experiment concerns HCV replicon. As to the kind of experiment: Replicon based assay of HCV replication inhibition (NPT ELISA). Type of experiment: cell-based, Hepatitis C virus. Particulars: Hepatitis C virus, replicon based assay of HCV replication inhibition; Table II; read-out: Activity. The method in brief:
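Huh-7 cells carrying a bicistronic HCV replicon (neo, EMCV-IRES-driven NS3–NS5B) treated overnight after seeding with usually 6 concentrations, 10 to 0.03 micromolar, for three days at 37° C without G418. Replication read as NPT level by captured ELISA; matched-DMSO wells and interferon alpha as controls.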
In general terms: A replicon is a self-replicating genome or part of one, used to study replication in cells.
Take `CCCCCOc1ccc(Nc2nc(CN3CCC(C(=O)O)CC3)cs2)cc1C(F)(F)F` [compound 274, 1-((2-(4-(pentyloxy)-3-(trifluoromethyl)phenyl-amino)thiazol-4-yl)methyl)piperidine-4-carboxylic acid]: the EC50 was less than 1000 nM.

In the case of `CCCCCOc1ccc(Nc2nc(CN3CCCC(C(=O)O)C3)cs2)cc1C(F)(F)F` (stereo not drawn) [compound 275, 1-((2-(4-(pentyloxy)-3-(trifluoromethyl)phenyl-amino)thiazol-4-yl)methyl)piperidin-3-carboxylic acid], the EC50 was less than 1000 nM.

For `CCCCCOc1ccc(Nc2nc(CN3CCCC(C)C3)cs2)cc1C(F)(F)F` (stereo not drawn) [compound 276, 4-((3-methylpiperidin-1-yl)methyl)-N-(4-(pentyloxy)-3-(trifluoromethyl)phenyl)thia-zol-2-amine], the EC50 was less than 1000 nM.

Regarding `CCCCCOc1ccc(Nc2nc(CN3C(C)CCCC3C)cs2)cc1C(F)(F)F` (stereo not drawn) [compound 277, 4-((2,6-dimethylpiperidin-1-yl)methyl)-N-(4-(pentyloxy)-3-(trifluoromthyl)phenyl)thia-zol-2-amine], the EC50 is less than 1000 nM.

As to `CCCCCOc1ccc(Nc2nc(CN3CCC[C@@H]3C(=O)O)cs2)cc1C(F)(F)F` [compound 278, (R)-1-((2-(4-(pentyloxy)-3-(trifluoromethyl)phenyl-amino)thiazol-4-yl)methyl)pyrrolidine-2-carboxylic acid], the EC50 was less than 1000 nM.

Regarding `CCCCCOc1ccc(Nc2nc(CN3CCN(C(=O)OC(C)(C)C)CC3)cs2)cc1F` [compound 279, tert-butyl 4-((2-(3-fluoro-4-(pentyloxy)phenylamino)thia-zol-4-yl)methyl)piperiazine-1-carboxylate], the EC50 lay in the range of 1000 to 10000 nM.

Take `CCCCCOc1ccc(Nc2nc(CN3CCC(N(C)C(=O)OC(C)(C)C)C3)cs2)cc1F` (stereo not drawn) [compound 280, tert-butyl 1-((2-(3-fluoro-4-(pentyloxy)phenylamino)thia-zol-4-yl)m,ethyl)pyrrolidin-3-yl(methyl)carbamate]: the EC50 lay within 1000 to 10000 nM.

As to `CCCCCOc1ccc(Nc2nc(CN3CCN(Cc4ccccn4)CC3)cs2)cc1F` [compound 281, N-(3-fluoro-4-(pentyloxy)phenyl)-4-((4-(pyridin-2-ylmethyl)piperiazin-1-yl)methyl)thiazol-2-amine], the EC50 is less than 1000 nM.

`CCCCCOc1ccc(Nc2nc(CN3CCN(C4CCCCCC4)CC3)cs2)cc1F` [compound 282, 4-((4-cycloheptylpiperazin-1-yl)methyl)-N-(3-fluoro-4-(pentyloxy)phenyl)thiazol-2-amine]: the EC50 is less than 1000 nM.

With `CCCCCOc1ccc(Nc2nc(CN3CCN(CCN(C)C)CC3)cs2)cc1F` [compound 283, 4-((4-(2-(dimeethylamino)ethyl)piper-azin-1-yl)methyl)-N-(3-fluoro-4-(pentyloxy)phenyl)thiazol-2-amine], the EC50 lay within 1000 to 10000 nM.

For `CCCCCOc1ccc(Nc2nc(CN3CCCC(C(=O)N(CC)CC)C3)cs2)cc1F` (stereo not drawn) [compound 284, N,N-diethyl-1-((2-(3-fluoro-4-(pentyloxy)phenylamino)thia-zol-4-yl)methyl)piperidine-3-carboxamide], the EC50 was 1000 to 10000 nM.

As for `CCCCCOc1ccc(Nc2nc(CN3CCOCC3)cs2)cc1F` [compound 285, N-(3-fluoro-4-(pentyloxy)phenyl)-4-(morpholinomethyl)thiazol-2-amine], the EC50 fell in the range of 1000 to 10000 nM.

For the compound `CCCCCOc1ccc(Nc2nc(CN3CCCCC3CO)cs2)cc1F` (stereo not drawn) [compound 286, (1-((2-(3-fluoro-4-(pentyloxy)phenylamino)thia-zol-4-yl)methyl)piperidin-2-yl)methanol], the EC50 lay within 1000 to 10000 nM.

Take `CCCCCOc1ccc(Nc2nc(CN3CCC(N(C)C)C3)cs2)cc1F` (stereo not drawn) [compound 287, 4-((3-(dimethylamino)pyrrolidin-1-yl)methyl)-N-(3-fluoro-4-(pentyloxy)pheenyl)thiazol-2-amine]: the EC50 was less than 1000 nM.

For `CCCCCOc1ccc(Nc2nc(CN3CCC(O)C3)cs2)cc1F` (stereo not drawn) [compound 288, 1-((2-(3-fluoro-4-(pentyloxy)phenylamino)thia-zzol-4-yl)methyl)pyrrolidin-3-ol], the EC50 was less than 1000 nM.

As for `CCCCCOc1ccc(Nc2nc(CN3CCC(C(=O)OCC)CC3)cs2)cc1F` [compound 289, ethyl 1-((2-(3-fluoro-4-(pentyloxy)phenylamino)thia-zol-4-yl)methyl)piperidine-4-carboxylate], the EC50 lay in the range of 1000 to 10000 nM.

On to `CCCCCOc1ccc(Nc2nc(CN3C[C@H](O)CC3C(=O)OC)cs2)cc1F` (stereo partly drawn) [compound 290, (4R)-methyl 1-((2-(3-fluoro-4-(pentyloxy)phenylamino)thia-zol-4-yl)methyl)-4-hydroxypyrrolidine-2-carboxylate], for which the EC50 was less than 1000 nM.

Consider `CCCCCOc1ccc(Nc2nc(CN3CCC(O)CC3)cs2)cc1F` [compound 291, 1-((2-(3-fluoro-4-(pentyloxy)phenylamino)thia-zol-4-yl)methyl)piperidin-4-ol], for which the EC50 lay in the range of 1000 to 10000 nM.

As for `CCCCCOc1ccc(Nc2nc(CN3CCC(CO)CC3)cs2)cc1F` [compound 292, (1-((2-(3-fluoro-4-(pentyloxy)phenylamino)thia-zol-4-yl)methyl)piperidin-4-yl)methanol], the EC50 is 1000 to 10000 nM.

Consider `CCCCCOc1ccc(Nc2nc(CN3CCCC(C(=O)O)C3)cs2)cc1F` (stereo not drawn) [compound 293, 1-((2-(3-fluoro-4-(pentyloxy)phenylamino)thia-zol-4-yl)methyl)piperidine-3-carboxylic acid], for which the EC50 fell in the range of 1000 to 10000 nM.

On to `CCCCCOc1ccc(Nc2nc(CN3CCC[C@@H]3C(=O)O)cs2)cc1F` [compound 294, (R)-1-((2-(3-fluoro-4-(pentyloxy)phenylamino)thia-zol-4-yl)methyl)pyrrolidine-2-carboxylic acid], for which the EC50 fell in the range of 1000 to 10000 nM.

`CCCCCOc1ccc(Nc2nc(CN3CCC(C)CC3)cs2)cc1F` [compound 295, N-(3-fluoro-4-(pentyloxy)pheenyl)-4-((4-methylpiperidin-1-yl)methyl)thiazol-2-amine]: the EC50 lay in the range of 1000 to 10000 nM.

`CCCCCOc1ccc(Nc2nc(CN3CCCC(C)C3)cs2)cc1F` (stereo not drawn) [compound 296, N-(3-fluoro-4-(pentyloxy)phenyl)-4-((3-methylpiperidin-1-yl)methyl)thiazol-2-amine]: the EC50 was in the range of 1000 to 10000 nM.

`CCCCCOc1ccc(Nc2nc(CN3C(C)CCCC3C)cs2)cc1F` (stereo not drawn) [compound 297, 4-((2,6-dimethylpiperidin-1-yl)methyl)-N-(3-fluoro-4-(pentyloxy)phenyl)thiazol-2-amine]: the EC50 was in the range of 1000 to 10000 nM.

Take `CCCCCOc1ccc(Nc2nc(-c3csc(-c4cccnc4)n3)cs2)cc1C(F)(F)F` [compound 298, N-(4-(pentyloxy)-3-(trifluoromethyl)phenyl)-4-(2-(pyridin-3-yl)thiazol-4-yl)thiazol-2-amine]: the EC50 is less than 1000 nM.

Consider `COc1ccc(C2CCCCC2)cc1Nc1nc(-c2cccnc2)cs1` [compound 299, N-(5-cyclohexyl-2-methoxyphenyl)-4-(pyridin-3-yl)thiazol-2-amine], for which the EC50 is 1000 to 10000 nM.

On to `COc1ccc(Oc2ccccc2)cc1Nc1nc(-c2cccnc2)cs1` [compound 300, N-(2-methoxy-5-phenoxyphenyl)-4-(pyridin-3-yl)thiazol-2-amine], for which the EC50 was in the range of 1000 to 10000 nM.

As for `CCCCCOc1ccc(Nc2nc(-c3ccc(C(=O)NC4CC4)nc3)cs2)cc1C(F)(F)F` [compound 301, N-cyclopropyl-5-(2-(4-(pentyloxy)-3-(trifluoromethyl)phenylamino)thiazolo-4-yl)picolinamide], the EC50 is less than 1000 nM.

In the case of `CCCCCCCCOc1ccc(Nc2nc(-c3ccc(C(=O)O)cc3)cs2)cc1` [compound 303, 4-(2-(4-(octyloxy)phenylamino)thia-zol-4-yl)benzoic acid], the EC50 lay within 1000 to 10000 nM.

Consider `CCCCCOc1ccc(Nc2nc(CN3CCC(C(C)(C)N)C3)cs2)cc1C(F)(F)F` (stereo not drawn) [compound 304, 4-((3-(2-aminopropan-2-yl)pyrrolidin-1-yl)methyl)-N-(4-(pentyloxy)-3-(trifluoromethyl)phenyl)thia-zol-2-amine], for which the EC50 was 1000 to 10000 nM.

In the case of `CCCCCOc1ccc(Nc2nc(CN3CCC(C(C)(C)N)C3)cs2)cc1F` (stereo not drawn) [compound 305, 4-((3-(2-aminopropan-2-yl)pyrrolidin-1-yl)methyl)-N-(3-fluoro-4-(pentyloxy)phenyl)thiazol-2-amine], the EC50 was 1000 to 10000 nM.

Turning to `CCCCCCCCOc1ccc(Nc2nc(-c3csc(N)n3)cs2)cc1` [compound 306, 4-(2-aminothiazol-4-yl)-N-(4-(octyloxy)phenyl)thiazol-2-amine], the EC50 was less than 1000 nM.

With `CCCCCCCCOc1ccc(Nc2nc(-c3cn4cccnc4n3)cs2)cc1` [compound 307, 4-(imidazo[1,2-a]pyrimidin-2-yl)-N-(4-(octyloxy)phenyl)thiazol-2-amine], the EC50 was less than 1000 nM.

Turning to `CCCCCCCCOc1ccc(Nc2nc(CN3CCN(C(=O)OC(C)(C)C)CC3)cs2)cc1` [compound 308, tert-butyl 4-((2-(4-(octyloxy)phenylamino)thia-zol-4-yl)methyl)piperazine-1-carboxylate], the EC50 was in the range of 1000 to 10000 nM.

For the compound `CCCCCCCCOc1ccc(Nc2nc(CN3CCC(N(C)C(=O)OC(C)(C)C)C3)cs2)cc1` (stereo not drawn) [compound 309, tert-butyl methyl(1-((2-(4-(octyloxy)phenylamino)thia-zol-4-yl)methyl)pyrrolidin-3-yl)carbamate], the EC50 was 1000 to 10000 nM.

Take `CCCCCCCCOc1ccc(Nc2nc(-c3ccc(OC)cc3)cs2)cc1` [compound 310, 4-(4-methoxyphenyl)-N-(4-(octyloxy)phenyl)thiazol-2-amine]: the EC50 was less than 1000 nM.

`CCCCCCCCOc1ccc(Nc2nc(-c3ccc(OCC(=O)O)cc3)c(C)s2)cc1` [compound 311]: the EC50 is less than 1000 nM.

As for `CCCCCCCCOc1ccc(Nc2nc(-c3ccc(F)c(F)c3)cs2)cc1` [compound 312, 4-(3,4-difluorophenyl)-N-(4-(octyloxy)phenyl)thiazol-2-amine], the EC50 is less than 1000 nM.

As for `CCCCCCCCOc1ccc(Nc2nc(CN3CCN(Cc4ccccn4)CC3)cs2)cc1` [compound 313], the EC50 fell in the range of 1000 to 10000 nM.
